Values of other authors, collected in paper PMC11998001, “Towards P2X4 Positron Emission Tomography Tracing” (Journal of Medicinal Chemistry, 2025).

What was measured:
[1] = for MLM stability: mouse, microsomes, 1.5 h
[2] = pH 7.4
[3] = test system: NLRP3 Inflammasome in macrophages; parameters: method as in PMID 39805099
tactile allodynia = test system: tactile allodynia; parameters: method as in PMID 33125712
[4] = for blood-brain barrier (BBB) permeation of radioligand (in words): in vivo, 18F-radiolabeled form
[5] = parameters: method as in PMID 33125712

Cc1cc(F)ccc1CS(=O)(=O)Nc1ccc(N2C(=O)CC(=O)Nc3c2ccc2ccccc32)cc1 [Erlitz 64]
MLM stability [1]: 64%
logD7.4 [2]: 3.68
NLRP3 inflammasome activation / interleukin-1β release (in words) [3]: able to block NLRP3 inflammasome activation

CNCC[C@H](Oc1cccc2ccccc12)c1cccs1 [Duloxetine]
effect on tactile allodynia (in words) (tactile allodynia): reverse tactile allodynia

Fc1ccc([C@@H]2CCNC[C@H]2COc2ccc3c(c2)OCO3)cc1 [Paroxetine]
effect on tactile allodynia (in words) (tactile allodynia): reverse tactile allodynia

O=C1CN=C(c2cccc(Br)c2)c2oc3ccccc3c2N1 [5-BDBD]
water solubility (in words): low water solubility

Cc1cc([18F])ccc1CS(=O)(=O)Nc1ccc(N2C(=O)CC(=O)Nc3c2ccc2ccccc32)cc1 [Erlitz [^18F]64]
in vivo metabolism of radioligand (in words) [4]: rapid, in vivo metabolism
blood-brain barrier (BBB) permeation of radioligand (in words) [4]: almost no blood–brain barrier (BBB) permeation

O=C(OCc1ccccc1)N1c2ccccc2Oc2ccccc21 [PSB-12054]
IC50 (hP2X4R; representative P2X4 antagonists, Figure 2): 190 nM

Cc1cc(F)ccc1S(=O)(=O)Nc1ccc(N2C(=O)CC(=O)Nc3c2ccc2ccccc32)cc1 [Erlitz 44]
stability in mouse microsomes (in words) [1]: higher stability in mouse microsomes
MLM stability [1]: 93%
logD7.4 [2]: 3.59
NLRP3 inflammasome activation / interleukin-1β release (in words) [3]: able to block NLRP3 inflammasome activation

Cc1ccc(S(=O)(=O)N2c3ccccc3Oc3ccccc32)cc1 [PSB-12062]
water solubility (in words): more water-soluble than the first

NS(=O)(=O)c1cc(NC(=O)Cc2ccccc2)ccc1Oc1cccc(Cl)c1 [BAY-1797]
blood-brain barrier permeation (in words) [5]: does not permeate the blood–brain barrier
water solubility (in words): high water solubility

O=C1CC(=O)N(c2cccc(-c3noc(=S)[nH]3)c2)c2ccc3ccccc3c2N1 [NP-1815-PX]
water solubility (in words): high potency and water solubility

Cc1cc([18F])ccc1S(=O)(=O)Nc1ccc(N2C(=O)CC(=O)Nc3c2ccc2ccccc32)cc1 [Erlitz [^18F]44]
in vivo metabolism of radioligand (in words) [4]: rapid, in vivo metabolism
blood-brain barrier (BBB) permeation of radioligand (in words) [4]: almost no blood–brain barrier (BBB) permeation

CC(C)c1cc(Br)c(NC(=O)Nc2cccnc2)c(Br)c1 [BX-430]
antagonist potency at the hP2X4 receptor (in words) (hP2X4R; allosteric antagonist): submicromolar
